Consider 3 compounds from patent publication US20090074885A1, “Reversible Hydrophobic Modification of Drugs for Improved Delivery to Cells” (Roche Madison Inc., priority 2003, published 2009).

In assay [1] the test system is Jurkat (human T-lymphocyte) cells. Nature of the assay: In vitro cellular uptake by fluorescence microscopy, Jurkat. In kind it is cell-based. The following applies: FIG. 5B. As for the experimental part: In Vitro cellular uptake of PI, RRH-PI compounds, and IV evaluated by fluorescence measurements. […] Adherent cells were plated at 2.5×10^5 cells/well on 6-well plates 24 h prior to testing. The growth media was removed from individual wells and the drug/prodrug was immediately added to the well with the mixing chamber. […] After 30 sec the drug solution was removed (aspirated) and 2 ml complete media was added to the cells. Experiments conducted with prodrug that was hydrolyzed prior to application to the cells followed a similar protocol, however the combined solution obtained after passing through the mixing chamber was collected and allowed to sit at ambient temperature for 5 min prior to application on the cells. Experiments conducted with Calcein AM (Invitrogen, 100 μl of 20 μM solution in complete media) followed a similar protocol for drug treatment (4 min treatment). Experiments conducted with SYTOX Green (Invitrogen) followed a similar protocol for drug treatment. […] Each condition was repeated in 2 or 3 wells, and the cells were immediately examined by microscopy. Fluorescent microscopy studies were conducted with a three laser LSM 510 confocal microscope, an Axiovert S100 fluorescent microscope, or an Axioplan2 fluorescent microscope (all Zeiss) equipped with filter sets for the rhodamine fluorescence channel (λex=BP 450/12, λem=LP 590 nm filter set) and the fluorescein fluorescent channel (λex=BP 546/90, λem=LP 515 nm filter set). Imaging was performed with an AxioCam digital camera (Zeiss), with AxioVision imaging software (V 4.5, Zeiss). For all images, identical camera settings and exposure times were used on comparative sample and control images. Images were processed with Photoshop (Adobe) for level and brightness using identical settings between sample and control images. For experiments conducted on Jurkat cells (8.0×10^5 cells/ml in media), the cells were isolated by centrifugation and resuspended in ITG at a density of 4.0×10^6 cells/ml. Exposure to the drug/prodrug was conducted by passing the cells in suspension in ITG (200 μl) through the mixing chamber. […]

In assay [2] the test system is SK-OV-3 peritoneal tumors. Nature of the assay: Direct application / IP injection in mouse model of disseminated peritoneal ovarian cancer. It is filed as in vivo, nude mice. To be noted: two weeks after SK-OV-3 inoculation, direct application or IP injection. As for the experimental part: BDMODS-PI and C12PMMA-PI show enhanced drug uptake by surface tissue and microtumors following IP and intraperitoneal perfusion chemotherapy (IPPC) application in a mouse tumor model. For establishment of the cancer model, 2×10^6 SK-OV-3 cells were injected IP into nude mice. The mice were examined at two weeks following cell inoculation, or at the first manifestation of ascites (about 4-5 wks). Tissue samples were fixed in 10% NBF, routinely processed, stained with H&E stain, and subjected to histopathological analysis. […] At 4-5 weeks after SK-OV-3 cell inoculation, maximum tumor size increased to 5-7 mm with the bulk of cancer development present as about 0.1 to about 1 mm microtumors (FIG. 9). At 5 wks most peritoneal surfaces were affected by growing cancer cells, coating both the visceral and parietal peritoneum, e.g. liver, pancreas, and diaphragm. […]
Two weeks following cell inoculation, the abdominal cavity was opened and the drug mixture was directly applied on the duodenum and ovary/uterus/fallopian tubes (220 μL of drug-OS/ITG over 30 sec). […] Cellular uptake of the prodrug was stronger at the surface of the metastases, but also readily detectable in the middle of the small tumors (tumor size about 0.5 to about 1 mm; FIG. 7-8). […]

Assay [3] has as its system Jurkat cells. As to the kind of experiment: Flow cytometry of prodrug delivery to Jurkat cells. In kind it is cell-based, human. As for the experimental part: For experiments conducted on Jurkat cells (8.0×10^5 cells/ml in media), the cells were isolated by centrifugation and resuspended in ITG at a density of 4.0×10^6 cells/ml. Exposure to the drug/prodrug was conducted by passing the cells in suspension in ITG (200 μl) through the mixing chamber. After 30 sec the cells were centrifuged and the drug solution was removed (aspirated), the cells were resuspended in complete media (2 ml) and plated in 6-well plates for imaging. Passing the cells through the mixing chamber (no drug/prodrug treatment) had no effect on cell viability when compared to cells plated without passing through the mixing chamber.
Flow cytometry was conducted on a FacsCalibur Flow Cytometer (Becton Dickinson Biosciences). Jurkat cells were isolated and treated with PI and II as previously described. After 4 min the cells were centrifuged and the drug solution was removed (aspirated) and 1 ml complete media was added to the cells. During analysis, PI was added to control cells (1 ml of 8.0×10^5 cells/ml in complete media, 1 drop of 1 mg/ml PI solution, no OS or mixing chamber) to determine normal cell senescence. Data were collected for a total of 10,000 events using Cell Quest™ (Becton Dickinson Biosciences), and analyzed with FlowJo (Tree Star Inc.) for single cell events (approximately 80% of events), and secondly for PI. For Jurkat cells treated with II, forward scatter was analogous to control cells, while side scatter increased approximately two fold. Reported data represents a histogram of PI intensity for single cell events from four independent preparations. Cells were considered PI positive at a value of 100 on the PI intensity axis of the histogram for the cell percentages described.
(A flow cytometer gives signals particle by particle.)

The mark [4] stands for this setting: cells suspended in ITG passed through mixing chamber with drug in DMSO.

`CCCCCCCCCCCCNC(=O)CCC(=CCC(=O)O)C(=O)Nc1ccc2c(c1)c(-c1ccccc1)[n+](CCC[N+](C)(CC)CC)c1cc(NC(=O)C(=CCC(=O)O)CCC(=O)NCCCCCCCCCCCC)ccc21.[I-].[I-]` [III, 3,8-bis-[2-(2 carboxyethylidene)-4-(dodecarbamoyl)-1-oxo-butylamine] 5-(3,3-diethyl-3-methylammoniumpropyl) 6-phenyl phenanthridinium diiodide]: in assay [1], the cells stained is about 100%; the “cellular uptake and staining” value is “strong cellular uptake and staining”. Also, in assay [2], the “labeling of peritoneal tumors” value is on record as “intensely labeled”.
Regarding `CCCCCCCCCCCCCCCCCC[Si](C)(C)Nc1ccc2c(c1)c(-c1ccccc1)[n+](CCC[N+](C)(CC)CC)c1cc(N[Si](C)(C)CCCCCCCCCCCCCCCCCC)ccc21.[I-].[I-]` [II, 3,8-bis[((dimethyl)octadecylsilazyl)amine] 5-(3,3-diethyl-3-methylammoniumpropyl) 6-phenyl phenanthridinium diiodide], the “PI positive cells (signal above 100)” value in assay [3] (setting [4]) is listed as 99.5±0.1%. In assay [2], the “labeling of peritoneal tumors” value is recorded as “intensely labeled”.
With `CC[N+](C)(CC)CCC[n+]1c(-c2ccccc2)c2cc(N)ccc2c2ccc(N)cc21.[I-].[I-]` [PI, Propidium iodide, reference compound], the “cellular uptake and staining” value in assay [1] is listed as “stained very few cells”. Further, the “PI positive cells (signal above 100)” value in assay [3] (PI in aqueous solution, no OS, no mixing chamber (control)) was 0.3±0.1%; in assay [3] (setting [4]), 8.4±0.6%.
